Reference: US12268666B2, “Spray-dried dispersions, formulations, and polymorphs of (S)-5-amino-3-(4-((5-fluoro-2-methoxybenzamido)methyl)phenyl)-1-(1,1,1-trifluoropropan-2-yl)-1H-pyrazole-4-carboxamide” (Loxo Oncology, Inc., priority 2018, dated 2025)
Entries after “also recorded” stand apart in the source; their conditions may differ. Like-named read-outs stand apart in the source and are kept apart here.

Key:
[1] = Solubility screening in lipid vehicles; format: physicochemical
Description: The solubility of the compound of Formula I in lipid vehicles is also examined. The compound of Formula I Form A is added into a clear, 20 mL glass vials followed by the corresponding excipients, e.g., MIGLYOL® 812 (saturated coconut and palmkernel oil-derived caprylic and capric fatty acids and glycerin, e.g., C8 and C10 triglycerides), CAPMUL® MCM EP (glyceryl monocaprylocaprate type I (EP)), PECEOL™ (glycerol monooleates (type 40) EP, glyceryl monooleate (type 40) NF), LABRAFIL® M2125CS (linoleoyl polyoxyl-6 glycerides), LAUROGLYCOL™ FCC (propylene glycol monolaurate (type I)), Span® 80 (sorbitane monooleate), PHOSAL® 53 MCT (lecithin in caprylic/capric triglycerides, alcohol, glyceryl stearate, oleic acid, and ascorbyl palmitate), or capmul PG-8 (propylene glycol monocaprylate). The samples are then homogenized with a handheld homogenizer for 10 minutes until the compound of Formula I is visibly dissolved. […] A set of matching control formulations are also prepared.

[2] = biological target: BTK C481S (Homo sapiens, UniProt Q06187, C481S); test: BTK activity assay, [33P]-ATP incorporation into poly-EY; format: biochemical; design: against full-length wild type (WT) and mutant human BTK enzymes
Description: (§1) The activity of the compound of Formula I against full-length wild type (WT) and mutant human BTK enzymes is determined by monitoring the incorporation [^33P]-PO4 from [γ-^33P]-ATP into poly-glutamic acid-tyrosine (poly-EY) peptide substrate. The reaction mixtures each contained polyhistidine-tagged BTK enzyme, poly-EY and BTK inhibitor at the appropriate concentrations. The reaction mixtures are incubated for 20 minutes at room temperature after which [[γ-^33P]-ATP (radiochemical concentration 10 μCi/μL) at 10 μM or the ATP Km concentration for each enzyme is added. After 2 hours of incubation at room temperature, the radiolabeled peptide substrate is captured, and incorporated radioactivity is quantified.
Each assay is performed at an ATP concentration close to the Km for each enzyme. […] After co-incubation with a serial dilution of the compound of Formula I, the quantity of ^33P incorporated into a peptide substrate is measured and the data analyzed using standard curve fitting methods.

[3] = test system: PLCγ2; test: PLCγ2 Y1217 phosphorylation in Ramos RA1 cells; format: cell-based; conditions: anti-human IgM stimulation
Description: Ramos RA1 cells, obtained from ATCC (CRL-1596), are grown in RPMI 1640+10% fetal bovine serum (FBS) at 37° C. in a CO2 incubator. […] Nine hundred μL of cell/well are added to 24 well plates and 100 uL of 10× stocks of inhibitor are added. The 10× compound of Formula I stocks are prepared in 1% DMSO, by doing a 1:3 dilution series with final concentrations in the wells ranging between 900 nM to 0.41 nM. […] All samples are tested in triplicate. After 2 hours (starvation and dosing) sodium orthovanadate is added to a final concentration of 200 μM and incubated for 30 more min. Cells are then stimulated with 4 uL of goat F(ab′)2 anti-human IgM (Jackson ImmunoResearch #109-006-129) for 5 min at room temperature, spun down, resuspended in 100 uL of […]™ M (Sigma #C2978) containing 5× Halt phosphatase and protease inhibitor cocktails (Pierce #78442), and stored at −80° C. Lysates are quantified by BCA (Pierce #23225) and analyzed by Simple Western (Protein Simple) with the following antibodies: anti-phospho-BTK (Y223) (Cell Signaling Technologies (CST) #5082), anti-BTK (CST #8547), anti-phospho-PLCγ2 (Y1217) (CST 3871), anti-PLCγ2 (CST 3872), and anti-GAPDH (GAPDH refers to glyceraldehyde 3-phosphate dehydrogenase) (Novus #MAB5718-SP). […] Results are analyzed with Compass software (Protein Simple), and IC50 values are calculated on GraphPad Prism 7.04 software.

[4] = Aqueous solubility at different pH values; format: physicochemical
[5] = biological target: T1, BTK P190K (Homo sapiens, UniProt Q06187, P190K); test: BTK activity assay, [33P]-ATP incorporation into poly-EY; format: biochemical; conditions: ATP at Km concentration
T1 construct: against full-length wild type (WT) and mutant human BTK enzymes
Description: as §1, with “The” for “The activity of the compound of Formula I against full-length wild type (WT) and mutant human BTK enzymes is determined by monitoring the incorporation [^33P]-PO4 from [γ-^33P]-ATP into poly-glutamic acid-tyrosine (poly-EY) peptide substrate. The”

[6] = biological target: T2, BTK E41K (Homo sapiens, UniProt Q06187, E41K); test: as above; format: biochemical; conditions: ATP at Km concentration
T2 construct: against full-length wild type (WT) and mutant human BTK enzymes
Description: as §1, with “The” for “The activity of the compound of Formula I against full-length wild type (WT) and mutant human BTK enzymes is determined by monitoring the incorporation [^33P]-PO4 from [γ-^33P]-ATP into poly-glutamic acid-tyrosine (poly-EY) peptide substrate. The”

BTK C481S, sequence (Q06187 whole entry C481S): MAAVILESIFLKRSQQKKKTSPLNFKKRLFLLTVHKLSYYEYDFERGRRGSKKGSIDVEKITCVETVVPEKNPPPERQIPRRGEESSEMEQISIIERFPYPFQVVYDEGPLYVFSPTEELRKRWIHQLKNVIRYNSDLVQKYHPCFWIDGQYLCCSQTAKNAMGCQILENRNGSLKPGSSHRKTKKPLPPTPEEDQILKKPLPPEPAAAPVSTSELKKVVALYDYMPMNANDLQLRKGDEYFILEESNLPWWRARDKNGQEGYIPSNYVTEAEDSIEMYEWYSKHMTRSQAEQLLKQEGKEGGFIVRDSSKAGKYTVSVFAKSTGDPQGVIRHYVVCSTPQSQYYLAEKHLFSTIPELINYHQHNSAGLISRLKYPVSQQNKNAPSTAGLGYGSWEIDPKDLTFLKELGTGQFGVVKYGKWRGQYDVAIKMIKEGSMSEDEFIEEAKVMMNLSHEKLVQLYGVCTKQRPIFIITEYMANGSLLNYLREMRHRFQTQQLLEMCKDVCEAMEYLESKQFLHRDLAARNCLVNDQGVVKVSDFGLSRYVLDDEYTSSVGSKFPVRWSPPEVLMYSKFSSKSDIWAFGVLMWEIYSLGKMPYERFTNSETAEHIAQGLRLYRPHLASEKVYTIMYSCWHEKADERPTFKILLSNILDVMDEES
T1 sequence (Q06187 whole entry P190K): as the sequence (Q06187 whole entry C481S) above, with P190K, S481C counted along it
T2 sequence (Q06187 whole entry E41K): as the sequence (Q06187 whole entry C481S) above, with E41K, S481C counted along it

With COc1ccc(F)cc1C(=O)NCc1ccc(-c2nn([C@@H](C)C(F)(F)F)c(N)c2C(N)=O)cc1 [compound of Formula I, (S)-5-amino-3-(4-((5-fluoro-2-methoxybenzamido)methyl)phenyl)-1-(1,1,1-trifluoropropan-2-yl)-1H-pyrazole-4-carboxamide] the “HPLC Solubility” value ([1]; CAPMUL ® MCM EP, 40 °C) was 33.3 mg API per g mixture, the “HPLC Solubility” value ([1]; Capmul PG-8, 25 °C) was 30.3 mg API per g mixture and the “HPLC Solubility” value ([1]; Glycerine, 25 °C) was 0.5 mg API per g mixture. The “HPLC Solubility” value ([1]; KOLLIPHOR ® EL, 25 °C) was 46.2 mg API per g mixture, the “HPLC Solubility” value ([1]; LABRAFIL ® M2125CS, 25 °C) was 3.2 mg API per g mixture and the “HPLC Solubility” value ([1]; LABRASOL ® ALF, 25 °C) was 104.1 mg API per g mixture. For the same compound, the “HPLC Solubility” value ([1]; LAUROGLYCOL ™ FCC, 25 °C) was 5.1 mg API per g mixture, the “HPLC Solubility” value ([1]; Long chain triglycerides/long chain lipid digestion products, 25 °C) was 0.02 mg API per g mixture and the “HPLC Solubility” value ([1]; MIGLYOL ® 812, 25 °C) was 0.62 mg API per g mixture. The “HPLC Solubility” value ([1]; Medium chain triglycerides/medium chain lipid digestion products, 25 °C) was 0.02 mg API per g mixture, the “HPLC Solubility” value ([1]; Oleic acid, 25 °C) was 1.2 mg API per g mixture and the “HPLC Solubility” value ([1]; PECEOL ™, 40 °C) was 6.6 mg API per g mixture. The “HPLC Solubility” value ([1]; PEG-400 (Macrogol 400), 25 °C) was 168.9 mg API per g mixture, the “HPLC Solubility” value ([1]; PHOSAL ® 53 MCT, 25 °C) was 11.3 mg API per g mixture and the “HPLC Solubility” value ([1]; Polysorbate 80/Tween-80, 25 °C) was 43.6 mg API per g mixture. For the same compound, the “HPLC Solubility” value ([1]; Propylene glycol, 25 °C) was 29.4 mg API per g mixture, the “HPLC Solubility” value ([1]; SPAN ® 80, 25 °C) was 6.2 mg API per g mixture and the “HPLC Solubility” value ([1]; Sesame oil, 25 °C) was 0.07 mg API per g mixture. For the same compound, the “HPLC Solubility” value ([1]; Vitamin E-TPGS NF, 40 °C) was 43.1 mg API per g mixture, the “excipients in which solubility is best” value ([1]; excipient screen for lipid-based formulations) was “best in PEG 400, LABRASOL® ALF (e.g., caprylocaproyl polyoxyl-8 glycerides), KOLLIPHOR® EL (e.g., polyoxyl castor oil), Tween 80, and Vitamin E TPGS; also recorded: most soluble in LABRASOL® ALF and PEG-400” and the IC50 ([2]; 10 μM ATP, read-out: IC50) was 0.29 nM. The IC50 ([2]; ATP at Km concentration, read-out: IC50 value) was 1.42 nM, the IC50 [3] was 8.2 nM and the solubility ([4]; aqueous solution, aqueous buffer, between pH 1 to pH 10) was 14 to 17 µg/mL. For the same compound, the solubility ([4]; aqueous solution, aqueous buffer, pH 3, actual media pH 3.03) was 14 µg/mL, the solubility ([4]; aqueous solution, aqueous buffer, pH 4, actual media pH 4.04) was 14 µg/mL and the solubility ([4]; aqueous solution, aqueous buffer, pH 6, actual media pH 6.04) was 14 µg/mL. The solubility ([4]; aqueous solution, aqueous buffer, pH 8, actual media pH 8.02) was 14 µg/mL, the solubility ([4]; aqueous solution, aqueous buffer, pH 10, actual media pH 9.98) was 14 µg/mL and the solubility ([4]; aqueous solution, simulated gastric fluid, pH 1.5, actual media pH 1.49) was 15 µg/mL. The solubility ([4]; aqueous solution, simulated gastric fluid, pH 2, actual media pH 2.06) was 15 µg/mL, the solubility ([4]; simulated gastric fluid, (0.1 N HCl) pH 1, actual media pH 1.09) was 17 µg/mL and the IC50 [5] was 2.14 nM. It also gave an IC50 [6] of 7.85 nM.
